Columns and labels:
B-Raf V600E = target: T1, B-Raf V600E (Homo sapiens, UniProt P15056, V600E); assay: Raf biochemical kinase assay (biotin-MEK1 phosphorylation), B-Raf V600E; conditions: 100 μM ATP
T1 construct: purchased Upstate Biotechnology
Procedure: Assays for biochemical and cell based activity are known in the art, for example, as described in PCT publication WO 2007/002433, the disclosure of which is hereby incorporated by reference as it relates to such assays. For example, the biochemical activity IC50 values are determined with respect to inhibition of A-Raf kinase activity, B-Raf kinase activity, c-Raf-1 kinase activity, or B-Raf V600E kinase activity, where inhibition of phosphorylation of a peptide substrate is measured as a function of compound concentration. Compounds to be tested are diluted in dimethyl sulfoxide to a concentration of 0.1 mM. These are serially diluted 15 μL into 30 μL of dimethyl sulfoxide seven times in 96 well plates for a total of 8 dilution points, and for each dilution point 1 μL is added to a well of an assay plate. Plates are prepared such that each well in a 384 well plate contains 1 μL of compound in 10 μL volume with 0.1 ng Raf enzyme (i.e. any of A-Raf, B-Raf, c-Raf-1 or B-Raf V600E, Upstate Biotechnology or prepared by methods known to one of skill in the art), 50 mM HEPES, pH 7.0, 50 mM NaCl, 2 mM MgCl2, 1 mM MnCl2, 0.01% Tween-20, 1 mM DTT, and 100 nM biotin-MEK1 as substrate. The reaction is started with addition of 10 μL of 200 μM ATP (i.e. final 100 μM ATP). After incubation of the kinase reaction for 45 minutes at room temperature, 5 μL/well of Stop Solution is added (25 mM Hepes pH 7.5, 100 mM EDTA, 0.01% BSA with donor beads (Streptavidin coated beads, Perkin Elmer), acceptor beads (Protein A coated, Perkin Elmer), and anti phosphor MEK1/2 antibody (CellSignal), each at final concentration 10 μg/mL). The plates are incubated for 3 hours at room temperature and read on Envision reader (Perkin Elmer). Phosphorylation of Mek1 results in binding of the anti-phosphor-MEK1/2 antibody and association of the donor and acceptor beads such that signal correlates with kinase activity. The signal vs. compound concentration is used to determine the IC50.

[1] = Relative solubility by turbidity in aqueous buffers; assay type: physicochemical
Procedure: As an indication of relative solubility, the turbidity of compounds in aqueous solutions is assessed. To assess possible compound properties in different physiological compartments, such as stomach, intestine, and blood, a series of aqueous buffers with varying pH is used. Thus each compound is diluted into four different physiologically relevant buffers and solution turbidity is measured by spectrophotometry.
Compounds are dissolved at a concentration of 25 mM in dimethyl sulfoxide, then serially diluted 1:1 into a 96 well plate, diluting 10 times in pure dimethyl sulfoxide, with the final well of each row a dimethyl sulfoxide blank. In an assay plate, 99 μL of appropriate buffer is added to each well, and 1 μL of each sample dilution is added to the buffer, achieving a range of final total concentrations in aqueous solutions having different pH. The buffers used are Simulated Gastric Fluid (SGF-pH 1.5) 0.5M NaCl, pH 1.5; Simulated Intestinal fluid (SIF-pH 4.5 and pH 6.8) 0.05M NaH2PO4, pH 4.5 and 6.8; and Hepes Buffer (HEPES-pH 7.4) 10 mM HEPES, 150 mM NaCl, pH 7.4. Control compounds pyrene, estriol and propranolol HCl are also assessed. Plates are spun and then mixed for 1 minute, and the absorbance is read using a Tecan Safire II to read wavelengths in the visible range (490, 535, and 650 nm) at four locations per well, reflecting the degree of turbidity present. The average optical density for each wavelength in each well is graphed vs. compound concentration, and the concentration at which the curve crosses a threshold O.D. of 0.01 for each wavelength is reported as the endpoint turbidity assay result. The average of the three wavelengths is used to compare turbidity of compounds. Compounds are considered to have low solubility if the threshold concentration is <31.3 μM, moderate solubility if the threshold concentration is 31.3 μM to 250 μM, and high solubility if the threshold concentration is >250 μM.

Tec = target: T2, Tec (Homo sapiens, UniProt P42680); assay: Biochemical inhibitory activity, other protein kinases: Tec; conditions: listing of the kinase means IC50 >1 μM
T2 sequence (P42680 1-631): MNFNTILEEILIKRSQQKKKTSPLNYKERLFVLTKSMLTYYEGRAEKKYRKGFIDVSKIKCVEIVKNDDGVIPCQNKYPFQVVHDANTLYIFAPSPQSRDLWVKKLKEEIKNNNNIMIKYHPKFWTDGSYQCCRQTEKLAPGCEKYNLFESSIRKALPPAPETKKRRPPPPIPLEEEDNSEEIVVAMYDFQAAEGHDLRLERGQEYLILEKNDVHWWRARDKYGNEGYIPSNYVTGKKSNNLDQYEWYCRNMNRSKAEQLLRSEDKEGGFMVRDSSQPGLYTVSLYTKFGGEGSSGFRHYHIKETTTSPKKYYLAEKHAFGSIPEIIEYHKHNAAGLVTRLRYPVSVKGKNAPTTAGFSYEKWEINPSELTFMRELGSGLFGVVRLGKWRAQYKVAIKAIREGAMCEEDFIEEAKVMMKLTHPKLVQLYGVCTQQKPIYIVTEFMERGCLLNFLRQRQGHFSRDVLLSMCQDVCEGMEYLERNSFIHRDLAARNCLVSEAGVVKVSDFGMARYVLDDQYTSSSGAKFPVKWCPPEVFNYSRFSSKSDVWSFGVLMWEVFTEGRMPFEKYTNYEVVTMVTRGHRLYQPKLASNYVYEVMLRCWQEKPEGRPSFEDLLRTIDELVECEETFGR

Kit = Kit (Homo sapiens, UniProt P10721); assay: Biochemical inhibitory activity, other protein kinases: Kit; conditions: listing of the kinase means IC50 >1 μM
[2] = Relative solubility by turbidity in aqueous buffers; assay type: physicochemical; conditions: pH 1.4 as headed (Simulated Gastric Fluid)
Btk = Btk (Homo sapiens, UniProt Q06187); assay: Biochemical inhibitory activity, other protein kinases: Btk; conditions: listing of the kinase means IC50 >1 μM
Chain of Btk (Q06187 whole entry, species assumed): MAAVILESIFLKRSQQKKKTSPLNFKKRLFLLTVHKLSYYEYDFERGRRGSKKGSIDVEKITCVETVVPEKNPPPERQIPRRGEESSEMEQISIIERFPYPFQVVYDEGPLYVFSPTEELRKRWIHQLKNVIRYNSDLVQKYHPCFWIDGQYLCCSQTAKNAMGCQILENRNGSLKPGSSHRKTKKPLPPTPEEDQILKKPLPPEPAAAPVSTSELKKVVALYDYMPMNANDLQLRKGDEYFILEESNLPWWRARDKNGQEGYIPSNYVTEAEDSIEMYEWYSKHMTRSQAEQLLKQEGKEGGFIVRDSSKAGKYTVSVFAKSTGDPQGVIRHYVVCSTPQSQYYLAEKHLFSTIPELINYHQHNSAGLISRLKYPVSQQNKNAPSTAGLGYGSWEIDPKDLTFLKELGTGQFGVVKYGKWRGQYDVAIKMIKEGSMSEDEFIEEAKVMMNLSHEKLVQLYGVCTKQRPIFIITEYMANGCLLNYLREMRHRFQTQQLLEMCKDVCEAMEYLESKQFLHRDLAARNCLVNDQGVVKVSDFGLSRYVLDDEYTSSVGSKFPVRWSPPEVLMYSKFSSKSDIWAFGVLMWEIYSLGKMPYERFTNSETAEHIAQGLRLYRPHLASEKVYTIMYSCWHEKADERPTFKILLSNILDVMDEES

T1 sequence (P15056 whole entry V600E): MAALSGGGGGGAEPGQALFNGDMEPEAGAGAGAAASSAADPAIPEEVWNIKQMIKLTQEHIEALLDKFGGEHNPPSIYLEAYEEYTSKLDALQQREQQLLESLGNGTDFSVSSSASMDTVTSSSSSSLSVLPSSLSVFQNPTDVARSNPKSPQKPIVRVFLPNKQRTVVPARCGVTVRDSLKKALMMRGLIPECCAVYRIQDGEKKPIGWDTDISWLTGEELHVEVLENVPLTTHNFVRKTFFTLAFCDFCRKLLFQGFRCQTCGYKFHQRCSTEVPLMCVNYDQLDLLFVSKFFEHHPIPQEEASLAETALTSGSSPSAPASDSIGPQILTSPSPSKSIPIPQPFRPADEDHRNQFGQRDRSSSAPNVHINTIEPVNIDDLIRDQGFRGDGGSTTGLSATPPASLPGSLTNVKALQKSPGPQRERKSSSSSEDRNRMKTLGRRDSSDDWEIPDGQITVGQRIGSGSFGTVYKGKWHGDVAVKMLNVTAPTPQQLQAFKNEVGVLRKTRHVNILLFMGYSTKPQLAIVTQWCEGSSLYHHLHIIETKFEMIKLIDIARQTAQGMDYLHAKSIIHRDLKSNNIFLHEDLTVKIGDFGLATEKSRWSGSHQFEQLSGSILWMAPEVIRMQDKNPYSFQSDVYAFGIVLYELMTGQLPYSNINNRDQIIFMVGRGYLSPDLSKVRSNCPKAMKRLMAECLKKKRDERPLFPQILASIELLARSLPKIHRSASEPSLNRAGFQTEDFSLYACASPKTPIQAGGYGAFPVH
Chain of Kit (P10721 26-976, species assumed): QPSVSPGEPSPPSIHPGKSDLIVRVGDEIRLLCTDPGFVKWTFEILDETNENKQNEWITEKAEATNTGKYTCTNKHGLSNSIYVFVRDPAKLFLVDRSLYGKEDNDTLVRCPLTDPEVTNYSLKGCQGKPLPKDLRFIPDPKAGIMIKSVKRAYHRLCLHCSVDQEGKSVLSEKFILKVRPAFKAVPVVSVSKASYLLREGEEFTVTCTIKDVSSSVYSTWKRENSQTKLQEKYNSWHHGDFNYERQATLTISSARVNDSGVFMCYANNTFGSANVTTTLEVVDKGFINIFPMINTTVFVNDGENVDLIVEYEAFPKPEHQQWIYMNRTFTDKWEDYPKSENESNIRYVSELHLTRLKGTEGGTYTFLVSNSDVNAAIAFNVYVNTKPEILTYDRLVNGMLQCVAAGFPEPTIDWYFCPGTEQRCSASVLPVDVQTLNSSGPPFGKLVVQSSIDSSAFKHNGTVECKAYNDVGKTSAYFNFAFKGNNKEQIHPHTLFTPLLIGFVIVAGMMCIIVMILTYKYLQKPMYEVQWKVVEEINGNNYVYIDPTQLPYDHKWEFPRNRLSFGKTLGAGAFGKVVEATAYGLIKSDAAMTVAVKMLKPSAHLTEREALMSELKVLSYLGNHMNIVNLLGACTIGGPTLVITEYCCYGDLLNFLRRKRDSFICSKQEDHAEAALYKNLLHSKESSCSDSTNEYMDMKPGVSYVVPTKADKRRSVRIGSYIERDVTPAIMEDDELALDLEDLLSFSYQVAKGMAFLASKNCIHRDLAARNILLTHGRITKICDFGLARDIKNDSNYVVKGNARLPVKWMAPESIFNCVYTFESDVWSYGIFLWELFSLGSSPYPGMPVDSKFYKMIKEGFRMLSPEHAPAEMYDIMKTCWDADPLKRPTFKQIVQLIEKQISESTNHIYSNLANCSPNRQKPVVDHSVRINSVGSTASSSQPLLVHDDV

SMILES: CN(C)S(=O)(=O)Nc1ccc(F)c(C(=O)c2c[nH]c3ncc(C#N)cc23)c1F [Compound P-0007, N,N-dimethylamino-sulfonic acid [3-(5-cyano-1H-pyrrolo[2,3-b]pyridine-3-carbonyl)-2,4-difluoro-phenyl]-amide]
- IC50 (B-Raf V600E): < 0.01 µM
- turbidity threshold (L, M, H) 4.5 ([1]; pH 4.5 (Simulated Intestinal fluid)): M (moderate solubility if the threshold concentration is 31.3 μM to 250 μM)
- turbidity threshold (L, M, H) 6.8 ([1]; pH 6.8 (Simulated Intestinal fluid)): H (high solubility if the threshold concentration is >250 μM)
- turbidity threshold (L, M, H) 7.4 ([1]; pH 7.4 (Hepes Buffer)): H (high solubility if the threshold concentration is >250 μM)
- Kinase having IC50 of >1 μM (Tec): Tec
- Kinase having IC50 of >1 μM (Kit): Kit
- turbidity threshold (L, M, H) 1.4 [2]: M (moderate solubility if the threshold concentration is 31.3 μM to 250 μM)
- Kinase having IC50 of >1 μM (Btk): Btk

Source: patent publication US8901301B2, “Pyrrolo[2,3-]pyridine kinase inhibitors” (Plexxikon Inc., priority 2009, dated 2014)
